Active and inactive are the calls of the source.
Assays:
[1] = target: Serine/threonine-protein kinase 24 (Homo sapiens, UniProt Q9Y6E0)
[2] = target: Rho-associated protein kinase 1 (Homo sapiens, UniProt Q13464)
[3] = target: Mitogen-activated protein kinase 14 (Homo sapiens, UniProt Q16539)
[4] = target: PAS domain-containing serine/threonine-protein kinase (Homo sapiens, UniProt Q96RG2)
[5] = target: Serine/threonine-protein kinase PAK 6 (Homo sapiens, UniProt Q9NQU5)
[6] = target: High affinity nerve growth factor receptor (Homo sapiens, UniProt P04629)
High affinity nerve growth factor receptor, sequence (P04629 whole entry): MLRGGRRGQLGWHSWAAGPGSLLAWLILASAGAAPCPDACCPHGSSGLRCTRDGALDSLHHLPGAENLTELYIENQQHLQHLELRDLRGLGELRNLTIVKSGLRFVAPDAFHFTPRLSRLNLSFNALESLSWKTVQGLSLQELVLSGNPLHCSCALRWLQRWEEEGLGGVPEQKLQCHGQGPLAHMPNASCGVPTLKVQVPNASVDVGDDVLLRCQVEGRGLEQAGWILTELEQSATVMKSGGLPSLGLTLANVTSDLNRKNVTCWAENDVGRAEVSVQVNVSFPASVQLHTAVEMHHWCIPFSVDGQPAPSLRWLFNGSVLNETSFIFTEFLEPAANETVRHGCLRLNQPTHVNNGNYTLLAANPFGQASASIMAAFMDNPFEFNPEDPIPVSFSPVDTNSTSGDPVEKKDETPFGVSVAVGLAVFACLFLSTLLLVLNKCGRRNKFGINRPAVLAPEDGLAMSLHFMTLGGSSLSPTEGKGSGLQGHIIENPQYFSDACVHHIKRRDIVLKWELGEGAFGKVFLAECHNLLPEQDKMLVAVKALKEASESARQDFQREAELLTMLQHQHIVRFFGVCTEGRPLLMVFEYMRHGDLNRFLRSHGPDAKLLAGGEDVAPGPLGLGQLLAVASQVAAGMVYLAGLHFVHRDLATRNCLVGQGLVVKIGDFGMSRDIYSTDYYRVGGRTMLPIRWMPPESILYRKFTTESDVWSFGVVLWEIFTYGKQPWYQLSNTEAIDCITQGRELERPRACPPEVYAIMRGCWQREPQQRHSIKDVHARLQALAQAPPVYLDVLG

UMP-CMP kinase = target: T1, UMP-CMP kinase (Homo sapiens, UniProt P30085)
T1 sequence (P30085 whole entry): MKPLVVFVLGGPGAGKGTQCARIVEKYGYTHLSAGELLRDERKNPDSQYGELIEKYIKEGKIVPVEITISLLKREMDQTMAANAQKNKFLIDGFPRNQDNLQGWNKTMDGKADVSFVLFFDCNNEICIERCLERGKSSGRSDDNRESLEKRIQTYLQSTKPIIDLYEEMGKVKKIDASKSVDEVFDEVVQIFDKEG

[7] = target: T2, ATP-dependent RNA helicase DHX30 (Homo sapiens, UniProt Q7L2E3)
T2 sequence (Q7L2E3 whole entry): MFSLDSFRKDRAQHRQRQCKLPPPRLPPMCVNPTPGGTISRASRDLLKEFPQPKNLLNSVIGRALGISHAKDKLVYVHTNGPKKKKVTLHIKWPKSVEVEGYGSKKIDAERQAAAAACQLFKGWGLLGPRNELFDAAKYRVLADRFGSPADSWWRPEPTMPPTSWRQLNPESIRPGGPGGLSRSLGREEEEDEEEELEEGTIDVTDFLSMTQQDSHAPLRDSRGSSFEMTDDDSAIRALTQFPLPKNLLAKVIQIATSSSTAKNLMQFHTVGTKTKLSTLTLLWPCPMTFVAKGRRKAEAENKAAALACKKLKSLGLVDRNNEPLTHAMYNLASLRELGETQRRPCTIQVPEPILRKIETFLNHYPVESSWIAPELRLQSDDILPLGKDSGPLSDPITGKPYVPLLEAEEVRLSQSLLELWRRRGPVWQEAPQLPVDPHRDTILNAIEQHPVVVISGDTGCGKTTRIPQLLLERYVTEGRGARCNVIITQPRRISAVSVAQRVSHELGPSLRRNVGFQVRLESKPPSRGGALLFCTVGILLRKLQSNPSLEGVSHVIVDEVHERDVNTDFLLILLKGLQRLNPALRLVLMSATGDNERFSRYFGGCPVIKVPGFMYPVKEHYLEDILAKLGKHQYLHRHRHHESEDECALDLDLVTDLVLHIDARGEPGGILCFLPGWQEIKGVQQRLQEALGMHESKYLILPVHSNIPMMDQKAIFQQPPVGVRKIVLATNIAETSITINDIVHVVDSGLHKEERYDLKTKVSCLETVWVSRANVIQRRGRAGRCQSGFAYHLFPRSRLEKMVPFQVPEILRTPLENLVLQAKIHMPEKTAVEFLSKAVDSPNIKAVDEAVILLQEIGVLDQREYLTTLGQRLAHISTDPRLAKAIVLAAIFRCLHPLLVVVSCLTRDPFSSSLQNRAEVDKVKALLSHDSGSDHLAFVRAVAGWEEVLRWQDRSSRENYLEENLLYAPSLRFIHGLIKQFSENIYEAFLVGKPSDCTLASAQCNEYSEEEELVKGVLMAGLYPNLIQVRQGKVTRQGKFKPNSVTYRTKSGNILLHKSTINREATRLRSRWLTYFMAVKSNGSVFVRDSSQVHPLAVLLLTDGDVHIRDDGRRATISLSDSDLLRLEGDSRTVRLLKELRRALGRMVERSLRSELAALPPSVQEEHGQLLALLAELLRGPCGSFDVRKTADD

[8] = target: Choline-phosphate cytidylyltransferase A (Homo sapiens, UniProt P49585)
Choline-phosphate cytidylyltransferase A, sequence (P49585 whole entry): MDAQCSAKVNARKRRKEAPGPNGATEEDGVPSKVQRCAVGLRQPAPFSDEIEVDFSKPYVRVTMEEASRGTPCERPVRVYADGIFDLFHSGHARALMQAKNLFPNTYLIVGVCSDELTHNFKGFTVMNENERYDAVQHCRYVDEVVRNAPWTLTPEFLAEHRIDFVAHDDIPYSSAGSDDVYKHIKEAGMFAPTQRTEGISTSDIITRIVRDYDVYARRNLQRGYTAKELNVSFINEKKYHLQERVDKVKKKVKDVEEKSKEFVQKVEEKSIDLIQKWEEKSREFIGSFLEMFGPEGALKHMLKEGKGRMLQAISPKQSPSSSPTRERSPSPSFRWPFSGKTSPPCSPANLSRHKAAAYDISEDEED

[9] = target: T3, Thyroid hormone receptor-associated protein 3 (Homo sapiens, UniProt Q9Y2W1)
T3 sequence (Q9Y2W1 whole entry): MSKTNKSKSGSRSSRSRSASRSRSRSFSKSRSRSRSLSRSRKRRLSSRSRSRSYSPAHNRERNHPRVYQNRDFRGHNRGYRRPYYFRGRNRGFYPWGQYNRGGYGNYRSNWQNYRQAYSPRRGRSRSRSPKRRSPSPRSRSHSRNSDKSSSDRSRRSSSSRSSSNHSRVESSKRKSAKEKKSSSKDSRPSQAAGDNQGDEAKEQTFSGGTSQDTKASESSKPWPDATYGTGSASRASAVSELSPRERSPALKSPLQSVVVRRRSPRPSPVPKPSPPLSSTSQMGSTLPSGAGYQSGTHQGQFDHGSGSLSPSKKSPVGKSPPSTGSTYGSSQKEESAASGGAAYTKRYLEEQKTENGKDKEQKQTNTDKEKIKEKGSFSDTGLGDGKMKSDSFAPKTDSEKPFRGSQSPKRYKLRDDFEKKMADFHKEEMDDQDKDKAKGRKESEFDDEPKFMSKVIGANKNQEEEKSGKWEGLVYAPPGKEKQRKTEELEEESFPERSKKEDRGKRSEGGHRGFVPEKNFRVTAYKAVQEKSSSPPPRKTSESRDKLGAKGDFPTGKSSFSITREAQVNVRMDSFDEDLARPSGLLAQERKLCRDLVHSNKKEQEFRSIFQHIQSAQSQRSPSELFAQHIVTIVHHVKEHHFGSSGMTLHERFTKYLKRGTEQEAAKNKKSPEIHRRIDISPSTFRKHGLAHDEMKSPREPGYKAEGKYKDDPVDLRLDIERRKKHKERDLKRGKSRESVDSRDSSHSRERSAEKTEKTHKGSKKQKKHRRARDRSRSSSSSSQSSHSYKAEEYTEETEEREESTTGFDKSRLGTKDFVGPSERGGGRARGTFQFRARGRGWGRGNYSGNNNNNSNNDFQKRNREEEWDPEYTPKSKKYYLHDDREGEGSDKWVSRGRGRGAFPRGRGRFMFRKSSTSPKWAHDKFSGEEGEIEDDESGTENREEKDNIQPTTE
Also: in the data inactive means no Kd found up to 30 µM.

Serine/threonine-protein kinase PAK 6, sequence (Q9NQU5 whole entry): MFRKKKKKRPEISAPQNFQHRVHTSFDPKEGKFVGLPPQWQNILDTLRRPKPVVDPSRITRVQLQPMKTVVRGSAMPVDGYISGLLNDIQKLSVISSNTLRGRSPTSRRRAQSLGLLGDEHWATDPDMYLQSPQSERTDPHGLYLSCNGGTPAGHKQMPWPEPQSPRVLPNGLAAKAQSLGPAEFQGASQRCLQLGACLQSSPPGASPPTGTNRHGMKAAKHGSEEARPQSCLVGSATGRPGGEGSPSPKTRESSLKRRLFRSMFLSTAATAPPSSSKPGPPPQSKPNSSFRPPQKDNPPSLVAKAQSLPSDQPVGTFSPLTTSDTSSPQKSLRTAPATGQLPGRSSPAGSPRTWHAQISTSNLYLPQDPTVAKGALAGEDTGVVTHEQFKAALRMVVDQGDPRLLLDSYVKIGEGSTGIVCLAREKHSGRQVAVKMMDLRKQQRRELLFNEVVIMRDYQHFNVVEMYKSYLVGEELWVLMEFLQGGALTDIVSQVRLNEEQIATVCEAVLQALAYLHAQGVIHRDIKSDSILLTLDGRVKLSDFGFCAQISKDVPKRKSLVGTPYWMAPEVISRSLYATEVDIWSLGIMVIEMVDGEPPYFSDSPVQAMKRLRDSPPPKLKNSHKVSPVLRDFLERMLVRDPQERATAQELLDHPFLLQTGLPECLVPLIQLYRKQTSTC
Rho-associated protein kinase 1, sequence (Q13464 whole entry): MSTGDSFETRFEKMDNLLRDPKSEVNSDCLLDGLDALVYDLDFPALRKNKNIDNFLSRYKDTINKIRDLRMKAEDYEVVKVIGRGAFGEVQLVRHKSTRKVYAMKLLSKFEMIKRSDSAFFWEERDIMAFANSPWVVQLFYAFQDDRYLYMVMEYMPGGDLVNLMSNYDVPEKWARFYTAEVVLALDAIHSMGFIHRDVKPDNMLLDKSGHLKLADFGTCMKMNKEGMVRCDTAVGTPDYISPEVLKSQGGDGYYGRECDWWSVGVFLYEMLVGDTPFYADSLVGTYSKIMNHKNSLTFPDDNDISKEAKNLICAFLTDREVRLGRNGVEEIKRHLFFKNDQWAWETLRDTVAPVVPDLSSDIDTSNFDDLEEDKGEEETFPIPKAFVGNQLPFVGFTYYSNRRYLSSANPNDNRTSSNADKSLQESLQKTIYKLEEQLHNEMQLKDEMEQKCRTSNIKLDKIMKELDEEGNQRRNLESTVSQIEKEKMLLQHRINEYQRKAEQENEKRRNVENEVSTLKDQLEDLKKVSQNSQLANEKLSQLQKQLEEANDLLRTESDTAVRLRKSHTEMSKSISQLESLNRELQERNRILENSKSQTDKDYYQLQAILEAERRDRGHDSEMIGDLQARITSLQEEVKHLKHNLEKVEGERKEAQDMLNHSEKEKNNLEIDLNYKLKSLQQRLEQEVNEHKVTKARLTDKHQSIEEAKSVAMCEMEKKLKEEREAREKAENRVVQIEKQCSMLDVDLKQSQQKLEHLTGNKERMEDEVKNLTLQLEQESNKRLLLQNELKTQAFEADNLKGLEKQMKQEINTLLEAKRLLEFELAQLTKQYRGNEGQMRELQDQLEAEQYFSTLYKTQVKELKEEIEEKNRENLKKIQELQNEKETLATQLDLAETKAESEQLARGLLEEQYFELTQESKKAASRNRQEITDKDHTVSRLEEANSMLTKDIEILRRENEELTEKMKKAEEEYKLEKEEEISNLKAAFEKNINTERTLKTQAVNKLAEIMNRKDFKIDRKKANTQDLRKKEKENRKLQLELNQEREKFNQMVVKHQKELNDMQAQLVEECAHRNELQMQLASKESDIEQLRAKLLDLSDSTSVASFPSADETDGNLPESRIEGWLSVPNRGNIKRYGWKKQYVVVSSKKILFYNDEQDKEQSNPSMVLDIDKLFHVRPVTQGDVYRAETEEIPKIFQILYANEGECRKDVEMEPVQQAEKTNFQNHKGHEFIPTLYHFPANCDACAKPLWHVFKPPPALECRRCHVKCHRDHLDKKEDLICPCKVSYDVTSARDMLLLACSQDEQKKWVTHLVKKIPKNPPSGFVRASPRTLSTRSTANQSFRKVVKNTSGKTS
PAS domain-containing serine/threonine-protein kinase, sequence (Q96RG2 whole entry, the tested form may be a part): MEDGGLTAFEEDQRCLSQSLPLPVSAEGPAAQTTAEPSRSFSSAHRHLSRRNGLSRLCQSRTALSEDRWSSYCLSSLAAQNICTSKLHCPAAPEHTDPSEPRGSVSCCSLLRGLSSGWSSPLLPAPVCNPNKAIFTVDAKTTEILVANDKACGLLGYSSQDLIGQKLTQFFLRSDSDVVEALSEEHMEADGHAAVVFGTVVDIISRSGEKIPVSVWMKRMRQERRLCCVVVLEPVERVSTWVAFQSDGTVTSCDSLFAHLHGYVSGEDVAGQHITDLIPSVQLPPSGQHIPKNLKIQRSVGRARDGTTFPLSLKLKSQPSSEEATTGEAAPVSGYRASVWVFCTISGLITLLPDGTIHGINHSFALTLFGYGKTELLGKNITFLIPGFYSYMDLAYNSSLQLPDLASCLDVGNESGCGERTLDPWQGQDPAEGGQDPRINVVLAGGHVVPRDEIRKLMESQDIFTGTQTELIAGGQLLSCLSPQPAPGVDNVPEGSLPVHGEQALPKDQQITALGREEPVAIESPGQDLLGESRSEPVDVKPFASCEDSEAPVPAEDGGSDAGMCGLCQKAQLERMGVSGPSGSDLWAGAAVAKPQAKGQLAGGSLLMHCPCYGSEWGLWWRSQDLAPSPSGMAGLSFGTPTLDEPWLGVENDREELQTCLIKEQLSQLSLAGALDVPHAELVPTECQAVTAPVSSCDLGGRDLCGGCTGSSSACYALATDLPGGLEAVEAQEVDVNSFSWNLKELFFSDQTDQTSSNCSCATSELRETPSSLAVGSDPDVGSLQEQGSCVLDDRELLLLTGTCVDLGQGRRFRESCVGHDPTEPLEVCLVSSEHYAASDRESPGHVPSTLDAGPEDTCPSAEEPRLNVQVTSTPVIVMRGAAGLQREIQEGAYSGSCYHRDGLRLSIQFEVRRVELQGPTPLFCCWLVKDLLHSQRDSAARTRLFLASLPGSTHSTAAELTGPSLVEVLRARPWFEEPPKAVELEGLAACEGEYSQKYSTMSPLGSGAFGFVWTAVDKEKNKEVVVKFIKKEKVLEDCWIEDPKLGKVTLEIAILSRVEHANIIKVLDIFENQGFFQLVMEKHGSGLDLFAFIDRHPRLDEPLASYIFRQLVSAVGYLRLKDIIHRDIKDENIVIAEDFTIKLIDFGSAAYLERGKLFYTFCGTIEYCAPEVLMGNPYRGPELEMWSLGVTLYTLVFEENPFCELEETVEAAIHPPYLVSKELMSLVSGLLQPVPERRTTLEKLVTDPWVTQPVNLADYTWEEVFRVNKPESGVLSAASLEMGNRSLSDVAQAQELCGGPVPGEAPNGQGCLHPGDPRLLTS
Serine/threonine-protein kinase 24, sequence (Q9Y6E0 whole entry): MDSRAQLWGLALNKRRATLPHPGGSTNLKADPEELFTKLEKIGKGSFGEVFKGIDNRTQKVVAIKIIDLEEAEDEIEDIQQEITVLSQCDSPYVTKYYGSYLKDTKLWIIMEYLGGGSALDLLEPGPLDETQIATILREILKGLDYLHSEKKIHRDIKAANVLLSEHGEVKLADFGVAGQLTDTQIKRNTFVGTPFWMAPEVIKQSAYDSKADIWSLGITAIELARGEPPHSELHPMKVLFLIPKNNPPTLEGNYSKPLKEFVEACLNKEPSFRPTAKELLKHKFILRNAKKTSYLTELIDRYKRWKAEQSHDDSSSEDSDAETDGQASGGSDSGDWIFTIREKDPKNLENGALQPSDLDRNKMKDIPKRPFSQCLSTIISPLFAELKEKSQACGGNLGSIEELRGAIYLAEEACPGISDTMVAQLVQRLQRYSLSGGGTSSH

Compound	Kd [1]	Kd [2]	Kd [3]	Kd [4]	Kd [5]	Kd [6]	Kd (UMP-CMP kinase)	Kd [7]	Kd [8]	Kd [9]
Cn1cc(-c2[nH]c3cc(NC(=O)[C@H](N)C4CCCCC4)cc4c3c2C=NNC4=O)cn1	> 30 µM (inactive)	> 30 µM (inactive)	> 30 µM (inactive)	> 30 µM (inactive)	0.019 µM	> 30 µM (inactive)	> 30 µM (inactive)	> 30 µM (inactive)		
CCN1CCN(Cc2ccc(Nc3ncc(F)c(-c4cc(F)c5nc(C)n(C(C)C)c5c4)n3)nc2)CC1 [ABEMACICLIB]	> 30 µM (inactive)	> 30 µM (inactive)	> 30 µM (inactive)			> 30 µM (inactive)			> 30 µM (inactive)	> 30 µM (inactive)
Cc1c(NC(=O)OC[C@@H]2COCCN2)cn2ncnc(Nc3ccc4c(cnn4Cc4cccc(F)c4)c3)c12 [AC-480]	> 30 µM (inactive)	> 30 µM (inactive)	> 30 µM (inactive)	> 30 µM (inactive)	> 30 µM (inactive)	> 30 µM (inactive)				> 30 µM (inactive)
C=CCn1c(=O)c2cnc(Nc3ccc(N4CCN(C)CC4)cc3)nc2n1-c1cccc(C(C)(C)O)n1 [ADAVOSERTIB]				> 30 µM (inactive)	> 30 µM (inactive)		> 30 µM (inactive)	> 30 µM (inactive)		> 30 µM (inactive)
CN(C)C/C=C/C(=O)Nc1cc2c(Nc3ccc(F)c(Cl)c3)ncnc2cc1O[C@H]1CCOC1 [AFATINIB]				> 30 µM (inactive)				> 30 µM (inactive)	> 30 µM (inactive)	> 30 µM (inactive)
COc1ccc2c(OCc3nnc4ccc(-c5ccccc5)nn34)ccnc2c1 [AMG-208]	> 30 µM (inactive)	> 30 µM (inactive)	> 30 µM (inactive)				> 30 µM (inactive)		> 30 µM (inactive)	> 30 µM (inactive)
NC[C@@](O)(c1ccc(Cl)cc1)c1ccc(-c2cn[nH]c2)cc1 [AT-13148]		0.027 µM (active)	> 30 µM (inactive)				> 30 µM (inactive)		> 30 µM (inactive)	> 30 µM (inactive)
COc1cc2nccc(Oc3ccc(NC(=O)C4(C(=O)Nc5ccc(F)cc5)CC4)cc3)c2cc1OC [CABOZANTINIB]	> 30 µM (inactive)	> 30 µM (inactive)	> 30 µM (inactive)		> 30 µM (inactive)	4.11 µM (active)	> 30 µM (inactive)	> 30 µM (inactive)		> 30 µM (inactive)
CC1(COc2ccc3c(c2)ncn3-c2ccc3cccc(N4CCC(N)CC4)c3n2)COC1 [CRENOLANIB]	0.057 µM (active)	> 30 µM (inactive)	> 30 µM (inactive)	> 30 µM (inactive)	> 30 µM (inactive)	0.008 µM (active)	0.003 µM (active)	> 30 µM (inactive)		
Cc1c(Cn2c(C)nc3c(C(=O)O)cc(N4CCOCC4)cc32)cccc1C(F)(F)F [GSK-2636771]	> 30 µM (inactive)	> 30 µM (inactive)	> 30 µM (inactive)			> 30 µM (inactive)	> 30 µM (inactive)		> 30 µM (inactive)	> 30 µM (inactive)
CC1(C)CNc2cc(NC(=O)c3cccnc3NCc3ccncc3)ccc21 [MOTESANIB]							> 30 µM (inactive)	> 30 µM (inactive)	> 30 µM (inactive)	
COc1cccc2cc(-c3nc([C@H]4CC[C@H](C(=O)O)CC4)n4ncnc(N)c34)[nH]c12 [OSI-027]	> 30 µM (inactive)	> 30 µM (inactive)	> 30 µM (inactive)			> 30 µM (inactive)	> 30 µM (inactive)	> 30 µM (inactive)	> 30 µM (inactive)	> 30 µM (inactive)
CN(c1ncccc1CNc1nc(Nc2ccc3c(c2)CC(=O)N3)ncc1C(F)(F)F)S(C)(=O)=O [PF-00562271]				> 30 µM (inactive)	> 30 µM (inactive)		> 30 µM (inactive)			
CC(C)CC(=O)Nc1[nH]nc2c1CN(C(=O)C1CCN(C)CC1)C2(C)C [PHA-793887]			> 30 µM (inactive)	> 30 µM (inactive)		> 30 µM (inactive)	> 30 µM (inactive)		> 30 µM (inactive)	
COCCN1CCN(Cc2ccc(-c3n[nH]c4c3C(=O)c3c(NC(=O)NN5CCOCC5)cccc3-4)cc2)CC1 [RGB-286638]		> 30 µM (inactive)	> 30 µM (inactive)		> 30 µM (inactive)	> 30 µM (inactive)	> 30 µM (inactive)	> 30 µM (inactive)		> 30 µM (inactive)
Cn1cnc2c(F)c(Nc3ccc(Br)cc3Cl)c(C(=O)NOCCO)cc21 [SELUMETINIB]				> 30 µM (inactive)			> 30 µM (inactive)		> 30 µM (inactive)	> 30 µM (inactive)
O[C@H]1CC[C@H](Nc2ncc3nc(Nc4c(F)cc(F)cc4F)n([C@H]4CCOC4)c3n2)CC1 [TANZISERTIB]	> 30 µM (inactive)	> 30 µM (inactive)	0.729 µM (active)	> 30 µM (inactive)	> 30 µM (inactive)	> 30 µM (inactive)		> 30 µM (inactive)		> 30 µM (inactive)
C[C@@H]1COC(Nc2ccc3ncnc(Nc4ccc(OCc5nccs5)c(Cl)c4)c3c2)=N1 [VARLITINIB]	> 30 µM (inactive)	> 30 µM (inactive)	> 30 µM (inactive)	> 30 µM (inactive)	> 30 µM (inactive)	> 30 µM (inactive)		> 30 µM (inactive)		> 30 µM (inactive)
NC(=O)c1ccc(N(C(N)=O)c2c(F)cccc2F)nc1-c1ccc(F)cc1F [VX-702]	> 30 µM (inactive)	> 30 µM (inactive)		> 30 µM (inactive)	> 30 µM (inactive)	> 30 µM (inactive)	> 30 µM (inactive)	> 30 µM (inactive)		> 30 µM (inactive)
COc1cc2ncnc(Nc3ccc(O)cc3)c2cc1OC [WHI-P131]	> 30 µM (inactive)	> 30 µM (inactive)	> 30 µM (inactive)	> 30 µM (inactive)	> 30 µM (inactive)	> 30 µM (inactive)	> 30 µM (inactive)	> 30 µM (inactive)		> 30 µM (inactive)

Source: ChEMBL document CHEMBL3991601, “The target landscape of clinical kinase drugs” (Science, 2017)
